The values below come from patent US20190345146A1, “NITROGEN CONTAINING BICYCLIC DERIVATIVES FOR TREATING PAIN AND PAIN RELATED CONDITIONS” (ESTEVE PHARMACEUTICALS, S.A., priority 2016, published 2019).

Molecules are shown by their SMILES.

Sequence of human α2δ-1 subunit of Cav2.2 calcium channel (P54289 25-1103): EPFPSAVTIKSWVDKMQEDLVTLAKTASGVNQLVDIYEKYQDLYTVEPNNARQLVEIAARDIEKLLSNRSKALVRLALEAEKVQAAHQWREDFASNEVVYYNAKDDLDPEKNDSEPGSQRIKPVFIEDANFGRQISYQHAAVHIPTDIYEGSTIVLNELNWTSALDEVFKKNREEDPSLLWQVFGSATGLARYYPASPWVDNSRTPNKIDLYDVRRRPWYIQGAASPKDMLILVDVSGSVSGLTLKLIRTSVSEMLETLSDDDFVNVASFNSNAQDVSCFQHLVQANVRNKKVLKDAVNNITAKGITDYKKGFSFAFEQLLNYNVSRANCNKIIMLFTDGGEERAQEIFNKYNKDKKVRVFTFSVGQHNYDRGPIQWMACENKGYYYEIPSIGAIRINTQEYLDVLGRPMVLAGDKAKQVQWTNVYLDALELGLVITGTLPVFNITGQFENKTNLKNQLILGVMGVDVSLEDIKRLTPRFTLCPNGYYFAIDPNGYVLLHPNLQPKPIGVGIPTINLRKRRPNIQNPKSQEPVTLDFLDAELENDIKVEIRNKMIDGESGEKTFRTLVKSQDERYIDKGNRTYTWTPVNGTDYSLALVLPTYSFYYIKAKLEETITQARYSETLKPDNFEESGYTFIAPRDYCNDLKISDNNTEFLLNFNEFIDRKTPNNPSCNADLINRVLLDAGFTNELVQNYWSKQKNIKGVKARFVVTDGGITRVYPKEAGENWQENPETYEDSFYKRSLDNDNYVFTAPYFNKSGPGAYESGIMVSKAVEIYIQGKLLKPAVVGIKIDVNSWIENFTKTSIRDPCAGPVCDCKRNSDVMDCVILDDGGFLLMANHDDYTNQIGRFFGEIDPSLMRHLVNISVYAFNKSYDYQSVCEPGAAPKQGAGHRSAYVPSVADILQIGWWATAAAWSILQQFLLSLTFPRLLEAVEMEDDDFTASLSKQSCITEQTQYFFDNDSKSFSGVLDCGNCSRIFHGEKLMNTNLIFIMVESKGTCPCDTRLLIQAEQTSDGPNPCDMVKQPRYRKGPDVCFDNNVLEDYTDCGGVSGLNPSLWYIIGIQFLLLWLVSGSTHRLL

The target in the assay is human α2δ-1 subunit of Cav2.2 calcium channel (Homo sapiens, UniProt P54289). Put plainly: Binding assay to human α2δ-1 subunit of Cav2.2 calcium channel ([3H]-Gabapentin). To be noted: Table 1, human α2δ-1 enriched membranes, read-out: Ki(nM) alpha2delta Hum. The method, then:
• Binding assay to human α2δ-1 subunit of Cav2.2 calcium channel.
Human α2δ-1 enriched membranes (2.5 μg) were incubated with 15 nM of radiolabeled [3H]-Gabapentin in assay buffer containing Hepes-KOH 10 mM, pH 7.4.
NSB (non specific binding) was measured by adding 10 μM pregabalin. The binding of the test compound was measured at five different concentrations. After 60 min of incubation at 27° C., the binding reaction was terminated by filtering through Multiscreen GF/C (Millipore) presoaked in 0.5% polyethyleneimine in Vacuum Manifold Station, followed by 3 washes with ice-cold filtration buffer containing 50 mM Tris-HCl, pH 7.4.
Filter plates were dried at 60° C. for 1 h and 30 μl of scintillation cocktail were added to each well before radioactivity reading.
Readings were performed in a Trilux 1450 Microbeta radioactive counter (Perkin Elmer). • Binding assay to human norepinephrine transporter (NET).
Regarding `CNCCC(Oc1cccc2c1CCN(C)C2)c1cccs1` (stereo not shown) [Example 2, N-methyl-3-((2-methyl-1,2,3,4-tetrahydroisoquinolin-5-yl)oxy)-3-(thiophen-2-yl)propan-1-amine], the Ki is below 100 nM. On to `CNCC[C@@H](Oc1cccc2cnncc12)c1cccs1` [Example 4, (R)—N-Methyl-3-(phthalazin-5-yloxy)-3-(thiophen-2-yl)propan-1-amine], for which the Ki fell in the range of 100 to 500 nM. Turning to `CNCC[C@H](Oc1cccc2cnncc12)c1cccs1` [Example 5, (S)-N-methyl-3-(phthalazin-5-yloxy)-3-(thiophen-2-yl)propan-1-amine], the Ki is at least 3000 nM. For `CNCCC(Oc1cccc2cnncc12)c1cccs1` (stereo not shown) [Example 6, N-methyl-3-(phthalazin-5-yloxy)-3-(thiophen-2-yl)propan-1-amine] the value was below 100 nM.

Take `CNCCC(Oc1cccc2ncn(C)c(=O)c12)c1cccs1` (stereo not shown) [Example 7, 3-methyl-5-(3-(methylamino)-1-(thiophen-2-yl)propoxy)quinazolin-4(3H)-one]: the Ki is 100 to 500 nM. For the molecule `CNCCC(Oc1cccc2c(=O)n(C)cnc12)c1cccs1` (stereo not shown) [Example 8, 3-methyl-8-(3-(methylamino)-1-(thiophen-2-yl)propoxy)quinazolin-4(3H)-one], the Ki is 100 to 500 nM. For `CNCCC(Oc1cccc2c(=O)n(C)ccc12)c1cccs1` (stereo not shown) [Example 9, 2-methyl-5-(3-(methylamino)-1-(thiophen-2-yl)propoxy)isoquinolin-1(2H)-one], the Ki is 100 to 500 nM.

Take `CCNCCC(Oc1cccc2cnncc12)c1ccccc1` (stereo not shown) [Example 11, N-ethyl-3-phenyl-3-(phthalazin-5-yloxy)propan-1-amine]: the Ki was in the range of 500 to 3000 nM.

Take `CCNCCC(Oc1cccc2cnncc12)c1cccs1` (stereo not shown) [Example 12, N-ethyl-3-(phthalazin-5-yloxy)-3-(thiophen-2-yl)propan-1-amine]: the Ki is 100 to 500 nM. Under `CCNCC[C@@H](Oc1cccc2cnncc12)c1ccccc1` [Example 13, (R)-N-ethyl-3-phenyl-3-(phthalazin-5-yloxy)propan-1-amine] stands 500 to 3000 nM; under `CCNCC[C@@H](Oc1cccc2cnncc12)c1cccs1` [Example 14, (R)-N-ethyl-3-(phthalazin-5-yloxy)-3-(thiophen-2-yl)propan-1-amine], below 100 nM.

For the molecule `CNCCC(OCc1cccc2cnccc12)c1ccccc1` (stereo not shown) [Example 17, 3-(Isoquinolin-5-ylmethoxy)-N-methyl-3-phenylpropan-1-amine], the Ki was at least 3000 nM. On to `CNCCC(OCc1cccc2ccncc12)c1ccccc1` (stereo not shown) [Example 18, 3-(isoquinolin-8-ylmethoxy)-N-methyl-3-phenylpropan-1-amine], for which the Ki is at least 3000 nM. For `CNCCC(OCc1cccc2ncccc12)c1ccccc1` (stereo not shown) [Example 19, N-methyl-3-phenyl-3-(quinolin-5-ylmethoxy)propan-1-amine] the value was at least 3000 nM. With `CNCCC(OCc1cccc2ccncc12)c1cccs1` (stereo not shown) [Example 20, 3-(Isoquinolin-8-ylmethoxy)-N-methyl-3-(thiophen-2-yl)propan-1-amine], the Ki is at least 3000 nM. Under `CNCCC(OCc1cccc2cnccc12)c1cccs1` (stereo not shown) [Example 21, 3-(isoquinolin-5-ylmethoxy)-N-methyl-3-(thiophen-2-yl)propan-1-amine] stands at least 3000 nM; under `CNCCC(OCc1cccc2ncccc12)c1cccs1` (stereo not shown) [Example 22, N-methyl-3-(quinolin-5-ylmethoxy)-3-(thiophen-2-yl)propan-1-amine], at least 3000 nM.

For `CNCC[C@H](Oc1cccc2c1CCCN2C)c1cccs1` [Example 23, (S)—N-methyl-3-((1-methyl-1,2,3,4-tetrahydroquinolin-5-yl)oxy)-3-(thiophen-2-yl)propan-1-amine], the Ki fell in the range of 500 to 3000 nM.

As for `CNCC[C@@H](Oc1cccc2c1CCCN2C)c1cccs1` [Example 24, (R)—N-methyl-3-((1-methyl-1,2,3,4-tetrahydroquinolin-5-yl)oxy)-3-(thiophen-2-yl)propan-1-amine], the Ki was 100 to 500 nM. Take `CNCC[C@H](Oc1cccc2c1CCN(C)C2)c1cccs1` [Example 25, (S)—N-methyl-3-((2-methyl-1,2,3,4-tetrahydroisoquinolin-5-yl)oxy)-3-(thiophen-2-yl)propan-1-amine]: the Ki lay in the range of 100 to 500 nM. In the case of `CNCC[C@@H](Oc1cccc2c1CCN(C)C2)c1cccs1` [Example 26, (R)—N-methyl-3-((2-methyl-1,2,3,4-tetrahydroisoquinolin-5-yl)oxy)-3-(thiophen-2-yl)propan-1-amine], the Ki was below 100 nM. Turning to `CCNCCC(Oc1cccc2c1CCN(C)C2)c1cccs1` (stereo not shown) [Example 27, N-ethyl-3-((2-methyl-1,2,3,4-tetrahydroisoquinolin-5-yl)oxy)-3-(thiophen-2-yl)propan-1-amine], the Ki is below 100 nM. For `CNCC[C@H](Oc1cccc2c1ccc(=O)n2C)c1cccs1` [Example 28, (S)-1-methyl-5-(3-(methylamino)-1-(thiophen-2-yl)propoxy)quinolin-2(1H)-one] the value was 500 to 3000 nM; for `CNCC[C@@H](Oc1cccc2c1ccc(=O)n2C)c1cccs1` [Example 29, (R)-1-methyl-5-(3-(methylamino)-1-(thiophen-2-yl)propoxy)quinolin-2(1H)-one], 100 to 500 nM.

Consider `CCNCC[C@@H](Oc1cccc2ncn(C)c(=O)c12)c1cccs1` [Example 30, (R)-5-(3-(ethylamino)-1-(thiophen-2-yl)propoxy)-3-methylquinazolin-4(3H)-one], for which the Ki is below 100 nM.

Turning to `CCNCC[C@@H](Oc1cccc2c(=O)n(C)ccc12)c1cccs1` [Example 31, (R)-5-(3-(ethylamino)-1-(thiophen-2-yl)propoxy)-2-methylisoquinolin-1(2H)-one], the Ki was below 100 nM. Under `CCNCC[C@@H](Oc1cccc2c(=O)n(C)cnc12)c1cccs1` [Example 32, (R)-8-(3-(ethylamino)-1-(thiophen-2-yl)propoxy)-3-methylquinazolin-4(3H)-one] stands 100 to 500 nM; under `CNCC[C@H](Oc1cccc2ncncc12)c1cccs1` [Example 33, (S)-N-methyl-3-(quinazolin-5-yloxy)-3-(thiophen-2-yl)propan-1-amine], 100 to 500 nM. `CCNCC[C@H](Oc1cccc2c(=O)n(C)cnc12)c1cccs1` [Example 34, (S)-8-(3-(ethylamino)-1-(thiophen-2-yl)propoxy)-3-methylquinazolin-4(3H)-one]: the Ki is at least 3000 nM. Regarding `CCNCC[C@H](Oc1cccc2c(=O)n(C)ccc12)c1cccs1` [Example 35, (S)-5-(3-(ethylamino)-1-(thiophen-2-yl)propoxy)-2-methylisoquinolin-1(2H)-one], the Ki is 500 to 3000 nM. `CCNCC[C@H](Oc1cccc2ncn(C)c(=O)c12)c1cccs1` [Example 36, (S)-5-(3-(ethylamino)-1-(thiophen-2-yl)propoxy)-3-methylquinazolin-4(3H)-one]: the Ki was at least 3000 nM. Turning to `CNCC[C@@H](Oc1cccc2ncncc12)c1cccs1` [Example 37, (R)-N-methyl-3-(quinazolin-5-yloxy)-3-(thiophen-2-yl)propan-1-amine], the Ki was below 100 nM.

With `CCNCC[C@H](Oc1cccc2ncncc12)c1cccs1` [Example 38, (S)-N-ethyl-3-(quinazolin-5-yloxy)-3-(thiophen-2-yl)propan-1-amine], the Ki lay in the range of 500 to 3000 nM. For `CCNCC[C@@H](Oc1cccc2ncncc12)c1cccs1` [Example 39, (R)-N-ethyl-3-(quinazolin-5-yloxy)-3-(thiophen-2-yl)propan-1-amine] the value was 100 to 500 nM; for `CCNCC[C@@H](Oc1cccc2ncncc12)c1ccsc1` [Example 40, (R)-N-ethyl-3-(quinazolin-5-yloxy)-3-(thiophen-3-yl)propan-1-amine], below 100 nM; for `CCNCC[C@@H](Oc1cccc2c(=O)n(C)cnc12)c1ccsc1` [Example 41, (R)-8-(3-(ethylamino)-1-(thiophen-3-yl)propoxy)-3-methylquinazolin-4(3H)-one], below 100 nM. Under `CCNCC[C@@H](Oc1cccc2c(=O)n(C)ccc12)c1ccsc1` [Example 42, (R)-5-(3-(ethylamino)-1-(thiophen-3-yl)propoxy)-2-methylisoquinolin-1(2H)-one] stands below 100 nM. For `CNCC[C@@H](Oc1cccc2ncn(C)c(=O)c12)c1ccsc1` [Example 43, (R)-3-methyl-5-(3-(methylamino)-1-(thiophen-3-yl)propoxyl)quinazolin-4(3H)-one] the value was 100 to 500 nM; for `CCNCC[C@@H](Oc1cc(C)cc2c(=O)n(C)cnc12)c1cccs1` [Example 44, (R)-8-(3-(ethylamino)-1-(thiophen-2-yl)propoxy)-3,6-dimethylquinazolin-4(3H)-one], 100 to 500 nM. With `CNCC[C@@H](Oc1cc(F)cc2ncn(C)c(=O)c12)c1cccs1` [Example 45, (R)-7-fluoro-3-methyl-5-(3-(methylamino)-1-(thiophen-2-yl)propoxyl)quinazolin-4(3H)-one], the Ki lay in the range of 100 to 500 nM.
